Columns and labels:
[1] = target: T1, human mAChRM1 (Homo sapiens, UniProt P11229); test: mAChR M1 cell-based functional assay (calcium mobilization), positive allosteric modulator activity: increase in the EC20 acetylcholine response; details: for Emax: PAM mode; for EC50: increase in the EC20 acetylcholine response, read-out: PAM Activity Human M1 EC50
T1 construct: host or cells: CHO-K1
T1 sequence (P11229 1-460): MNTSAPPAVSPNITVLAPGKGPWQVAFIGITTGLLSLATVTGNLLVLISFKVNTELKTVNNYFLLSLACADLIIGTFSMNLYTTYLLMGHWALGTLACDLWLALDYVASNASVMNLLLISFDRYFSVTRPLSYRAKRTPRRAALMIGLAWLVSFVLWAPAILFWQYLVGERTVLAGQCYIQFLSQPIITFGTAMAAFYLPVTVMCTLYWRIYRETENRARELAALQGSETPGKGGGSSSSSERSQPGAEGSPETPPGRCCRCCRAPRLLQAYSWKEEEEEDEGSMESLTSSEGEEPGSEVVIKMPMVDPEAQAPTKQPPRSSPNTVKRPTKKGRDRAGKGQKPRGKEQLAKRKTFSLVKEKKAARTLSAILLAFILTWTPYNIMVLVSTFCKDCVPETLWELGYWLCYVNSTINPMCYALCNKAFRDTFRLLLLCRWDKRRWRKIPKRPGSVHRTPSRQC
Description: (§1) Chinese hamster ovary (CHO-K1) cells stably expressing rat (r)M1 were purchased from the American Type Culture Collection and cultured according to their indicated protocol. CHO cells stably expressing human (h)M2, hM3, and hM5 were described previously (Levey, et al., 1991); hM1 and hM4 cDNAs were purchased from Missouri S&T cDNA Resource; rM4 cDNA was provided by T. I. Bonner (National Institutes of Health, Bethesda, MD). rM2 and rM3 were cloned from a rat brain cDNA library and sequence verified. hM1, rM2, rM3, hM4, and rM4 cDNAs were used to stably transfect CHO-K1 cells purchased from the American Type Culture Collection using Lipofectamine 2000. To make stable rM2, hM2, rM3, hM4. and rM4 cell lines for use in calcium mobilization assays, these cells also were stably transfected with a chimeric G-protein (Gqi5) (provided by B. R. Conklin, University of California, San Francisco) using Lipofectamine 2000. rM1, hM1, rM3, hM3, rM5, and hM5 cells were grown in Ham's F-12 medium containing 10% heat-inactivated fetal bovine serum (FBS), 20 mM HEPES, and 50 μg/mL G418 sulfate. rM2-Gqi5, hM2-Gqi5, and hM4-Gqi5 cells were grown in the same medium also containing 500 µg/mL Hygromycin B. Stable rM4-Gqi5 cells were grown in DMEM containing 10% heat-inactivated FBS, 20 mM HEPES, 400 μg/mL G418 sulfate, and 500 μg/mL Hygromycin B.
(§2) For high throughput measurement of agonist-evoked increases in intracellular calcium, CHO-K1 cells stably expressing muscarinic receptors were plated in growth medium lacking G418 and hygromycin at 15,000 cells/[…] in Greiner 384-well black-walled, tissue culture (TC)-treated, clear-bottom plates (VWR). Cells were incubated overnight at 37° C. and 5% CO2. The next day, cells were washed using an ELX 405 (BioTek) with four washes (80 μL) of assay buffer then aspirated to 20 μL. Next, 20 μL of 16 μM Fluo-4/acetoxymethyl ester (Invitrogen, Carlsbad, CA) prepared as a 2.3 mM stock in DMSO and mixed in a 1:1 ratio with 10% (w/v) Pluronic F-127 and diluted in assay buffer was added to the wells and the cell plates were incubated for 50 min at 37° C. and 5% CO2. Dye was removed by washing with the ELX 405 (four 80 μL washes of assay buffer) then aspirated to 20 μL. Compound master plates were formatted in an 11 point CR^c format (1:3 dilutions) in 100% DMSO with a starting concentration of 10 mM using the BRAVO liquid handler (Agilent). Test compound CRCs were then transferred to daughter plates (240 nL) using the Echo acoustic plate reformatter (Labcyte, Sunnyvale, CA) and then diluted into assay buffer ([…]) to a 2× stock using a Thermo Fisher Combi (Thermo Fisher Scientific, Waltham, MA).
(§3) Calcium flux was measured using the Functional Drug Screening System (FDSS) 6000 (Hamamatsu Corporation, Tokyo, Japan) as an increase in the fluorescent static ratio. Compounds were applied to cells (20 μL, 2×) using the automated system of the FDSS 6000 at 4 s into the 300 s protocol and the data were collected at 1 Hz. […] Agonist activity was analyzed as a concentration-dependent increase in calcium mobilization upon compound addition. Emax values for agonist activity are expressed relative to the maximum for acetylcholine. Positive allosteric modulator activity was analyzed as a concentration-dependent increase in the EC20 acetylcholine response. Antagonist activity was analyzed as a concentration-dependent decrease in the EC80 acetylcholine response. Concentration-response curves were generated using a four-parameter logistical equation in XLfit curve fitting software (IDBS, Bridgewater, NJ) for Excel (Microsoft, Redmond, WA) or Prism (GraphPad Software, Inc., San Diego, CA).
Activity (EC50 and Emax) was determined in the mAChRM1 cell-based functional assay as described above and the data are shown in Table 16. The compound numbers correspond to the compound numbers used in Table 15.

[2] = target: T1, human mAChRM1; test: mAChR M1 cell-based functional assay (calcium mobilization), agonist activity upon compound addition, Emax relative to acetylcholine maximum; details: for Agonist Activity Human M1 EC50 / EC50: calcium mobilization upon compound addition; for Emax: relative to the maximum for acetylcholine
Description: Lack of agonist activity may be measured as weak or no increase in calcium fluorescence in mAChRM1-transfected CHO-K1 cells in the presence of the compound, compared to the response of equivalent CHO-K1 cells in the absence of the compound. Lack of mAChRM1 agonist activity may be determined as a percent response relative to acetylcholine. For example, a disclosed compound may have less than or equal to 30%, 25%, 20%, 15%, 10%, 5%, or 1% mAChRM1 agonist activity relative to acetylcholine. A disclosed compound may have substantially no mAChRM1 agonist activity. […] The absence of mAChRM1 agonist activity may contribute to the avoidance of cholinergic adverse effect liability.
as §1, §2
as §3, with “Antagonist activity was analyzed as a concentration-dependent decrease in the EC80 acetylcholine response. Concentration-response curves were generated using a four-parameter logistical equation in XLfit curve fitting software (IDBS, Bridgewater, NJ) for Excel (Microsoft, Redmond, WA) or Prism (GraphPad Software, Inc., San Diego, CA).” left out

Emax [1] [%]	EC50 [1] [µM]	Agonist Activity Human M1 EC50 [2]	EC50 [2] [µM]	Emax [2] [%]	SMILES
34	1.83	inactive			CC(C)(O)c1c(F)cc(-c2cc(F)c(CN3Cc4ncccc4C3=O)c(F)c2)cc1F [Compound 47, 6-((3,3′,5,5′-tetrafluoro-4′-(2-hydroxypropan-2-yl)-[1,1′-biphenyl]-4-yl)methyl)-6,7-dihydro-5H-pyrrolo[3,4-b]pyridin-5-one]
65	0.12		≥ 10	28	[2H]C1([2H])c2ncccc2C(=O)N1Cc1c(C)cc(-c2ccc(C(C)(C)O)c3nn(C([2H])([2H])[2H])cc23)cc1F (single isomer, unassigned) [Compound 146, 6-(2-fluoro-4-(7-(2-hydroxypropan-2-yl)-2-(methyl-d3)-2H-indazol-4-yl)-6-methylbenzyl)-6,7-dihydro-5H-pyrrolo[3,4-b]pyridin-5one-7,7-d2]
60	5.04	inactive			CC(C)(O)c1ccc(-c2cc(F)c(CN3Cc4nccnc4C3=O)c(F)c2)cc1 [Compound 137, 6-((3,5-difluoro-4′-(2-hydroxypropan-2-yl)-[1,1′-biphenyl]-4-yl)methyl)-6,7-dihydro-5H-pyrrolo[3,4-b]pyrazin-5-one]
51	≥ 10	inactive			Cc1cc(-c2cn(C)nc2C(C)(C)O)cc(F)c1CN1Cc2ncccc2C1=O [Compound 30, 6-(2-fluoro-4-(3-(2-hydroxypropan-2-yl)-1-methyl-1H-pyrazol-4-yl)-6-methylbenzyl)-6,7-dihydro-5H-pyrrolo[3,4-b]pyridin-5-one]
81	0.583	inactive			Cn1cc2c(-c3cc(F)c(CN4Cc5ncccc5C4=O)c(N4CCC4)c3)ccc(C(C)(C)O)c2n1 [Compound 78, 6-(2-(azetidin-1-yl)-6-fluoro-4-(7-(2-hydroxypropan-2-yl)-2-methyl-2H-indazol-4-yl)benzyl)-6,7-dihydro-5H-pyrrolo[3,4-b]pyridin-5-one]

Further lines, the compound ahead of its results:

SMILES	Emax [1] [%]	EC50 [1] [µM]	Agonist Activity Human M1 EC50 [2]	EC50 [2] [µM]	Emax [2] [%]
CCC(O)(CC)c1ccc(-c2cc(F)c(CN3Cc4ncccc4C3=O)c(F)c2)c2cn(C)nc12 [Compound 54, 6-(2,6-difluoro-4-(7-(3-hydroxypentan-3-yl)-2-methyl-2H-indazol-4-yl)benzyl)-6,7-dihydro-5H-pyrrolo[3,4-b]pyridin-5-one]	66	2.29	inactive		
Cn1cc2c(-c3ccc(CN4Cc5cccnc5C4=O)c(F)c3)ccc(C(C)(C)O)c2n1 [Compound 130, 6-(2-fluoro-4-(7-(2-hydroxypropan-2-yl)-2-methyl-2H-indazol-4-yl)benzyl)-5,6-dihydro-7H-pyrrolo[3,4-b]pyridin-7-one]	88	0.251		7.49	12
CC(C)(O)c1cncc(-c2cc(F)c(CN3Cc4ncccc4C3=O)c(F)c2)c1 [Compound 42, 6-(2,6-difluoro-4-(5-(2-hydroxypropan-2-yl)pyridin-3-yl)benzyl)-6,7-dihydro-5H-pyrrolo[3,4-b]pyridin-5-one]	48	≥ 10	inactive		
[2H]C([2H])([2H])n1cc2c(-c3cc(F)c(CN4Cc5ncccc5C4=O)c(F)c3)ccc(C(C)(C)O)c2n1 [Compound 4, 6-(2,6-difluoro-4-(7-(2-hydroxypropan-2-yl)-2-(methyl-d3)-2H-indazol-4-yl)benzyl)-6,7-dihydro-5H-pyrrolo[3,4-b]pyridin-5-one]	83	0.124		1.91	49
CC(C)(O)c1cc2cc(-c3cc(F)c(CN4Cc5ncccc5C4=O)c(F)c3)ccn2n1 [Compound 108, 6-(2,6-difluoro-4-(2-(2-hydroxypropan-2-yl)pyrazolo[1,5-a]pyridin-5-yl)benzyl)-6,7-dihydro-5H-pyrrolo[3,4-b]pyridin-5-one]	70	1.8	inactive		

Reference: patent US20260138978A1, “POSITIVE ALLOSTERIC MODULATORS OF THE MUSCARINIC ACETYLCHOLINE RECEPTOR M1” (Vanderbilt University, priority 2022, published 2026)
